Measurements from EP0135194A1, “Azetidinones and their production” (Takeda Chemical Industries, Ltd., priority 1983, dated 1985).
Counter-ions that a name gives are not always drawn.

What was measured:
Test in all cases: MIC by agar dilution method
Format in all cases: cell-based
[1] = tested on: Proteus vulgaris IFO 3988; details: IFO3988, test organism (3), Trypticase soy agar, about 10^8 CFU/mℓ, overnight at 37°C
Method: (§1) With regard to the objective compounds as obtained in Examples 2 to 5 and 17 to 19, MICs (µg/mℓ) were measured by the method to be described below and the results are tabulated in the following table.
(§2) The MIC of a test compound was determined by the agar dilution method. Thus, 1.0 mℓ each of successively diluted,; aqueous solutions of a test compound are poured in a petri dish, respectively, and then 9.0 mℓ of Trypticase soy agar was poured, followed by mixing. A suspension (about 10^8 CFU/ mℓ) of a test organism was smeared on the mixed agar plates. After incubation overnight at 37°C, the minimum concentration of the test compound to inhibit fully the growth of the test organism is determined as the minimal inhibitory concentration (MIC).
(§3) • (1) Escherchia coli NIHJ JC-2; • (2) Serratia marcescens IFO 12648 • (3) Proteus vulgaris IFO 3988 • (4) Proteus mirabilis IFO 3849 • (5) Pseudomonas aeruginosa IFO 3455 • (6) Enterobacter cloacae IFO 12937

[2] = tested on: Escherchia coli NIHJ JC-2; details: test organism (1); Trypticase soy agar, about 10^8 CFU/mℓ, overnight at 37°C
Method: as §1, §2, §3

[3] = tested on: Pseudomonas aeruginosa IFO 3455; details: IFO3455, test organism (5), Trypticase soy agar, about 10^8 CFU/mℓ, overnight at 37°C
Method: as §1, §2, §3

[4] = tested on: Proteus mirabilis IFO 3849; details: IFO3849, test organism (4), Trypticase soy agar, about 10^8 CFU/mℓ, overnight at 37°C
Method: as §1, §2, §3

[5] = tested on: Serratia marcescens IFO 12648; details: IFO12648, test organism (2), Trypticase soy agar, about 10^8 CFU/mℓ, overnight at 37°C
Method: as §1, §2, §3

[6] = tested on: Enterobacter cloacae IFO 12937; details: IFO12937, test organism (6), Trypticase soy agar, about 10^8 CFU/mℓ, overnight at 37°C
Method: as §1, §2, §3

SMILES | MIC [1] [µg/mL] | MIC [2] [µg/mL] | MIC [3] [µg/mL] | MIC [4] [µg/mL] | MIC [5] [µg/mL] | MIC [6] [µg/mL]
NC(=O)OC[C@H]1[C@H](NC(=O)/C(=N\OCC(=O)O)c2csc(N)n2)C(=O)N1OCC(=O)O (relative stereo) [Example 17, trans-3-[2-(2-aminothiazol-4-yl)-(Z)-2-carboxymethoxyiminoacetamido]-4-carbamoyloxymethyl-l-carboxy-methoxy-2-azetidinone disodium salt] | 0.39 | 0.39 | 100 | 0.39 | 0.39 | 0.78
CC(C)(O/N=C(\C(=O)N[C@@H]1C(=O)N(OCC(=O)O)[C@H]1COC(N)=O)c1csc(N)n1)C(=O)O (relative stereo) [Example 18, trans-3-[2-(2-aminothiazol - 4-yl) - (Z) -2-(1-carboxy-1-methylethoxyimino)acetamido]-4-carbamoyloxymethyl-l-carboxymethoxy-2-azetidinone disodium salt] | < 0.1 | 0.78 | 12.5 | < 0.1 | 0.39 | 0.78
CO/N=C(\C(=O)N[C@@H]1C(=O)N(OCC(=O)O)[C@H]1C)c1csc(N)n1 [Example 2, (3S,4S)-3-[2-aminothiazol-4-yl)-(Z)-2-methoxyiminoacetamido]-1-carboxymethoxy-4-methyl-2-azetidinone monosodium salt] | 0.39 | 0.39 | > 100 | 0.39 | 0.39 | 12.5
C[C@H]1[C@H](NC(=O)/C(=N\OC(C)(C)C(=O)O)c2csc(N)n2)C(=O)N1OCC(=O)O [Example 3, (3S,4S)-3-[2-(2-aminothiazol-4-yl)-(Z)-2-(1-carboxy-1-methylethoxyimino)acetamido]-1-carboxymethoxy-4-methyl-2-azetidinone disodium salt] | < 0.1 | 0.39 | 6.25 | < 0.1 | 0.39 | 12.5
CCN1CCN(C(=O)N[C@@H](C(=O)N[C@@H]2C(=O)N(OCC(=O)O)[C@H]2C)c2ccccc2)C(=O)C1=O [Example 4, (3S,4S)-1-carboxymethoxy-3-[(D)-2-(4-ethyl-2,3-dioxopiperazine-1-carbonylamino)-2-phenylacetamido]-4-methyl-2-azetidinone monosodium salt] | 1.56 | 12.5 | 25 | 12.5 | 6.25 | > 100
CC(C)(O/N=C(\C(=O)N[C@H]1CN(OCC(=O)O)C1=O)c1csc(N)n1)C(=O)O [Example 5, (3S)-3-[2-(2-aminothiazol-4-yl)-(Z)-2-(1-carboxy-1-methylethoxyimino)acetamido]-1-carboxymethoxy-2-azetidinone disodium salt] | 0.78 | 0.78 | 6.25 | 1.56 | 1.56 | 50
C[C@H]1[C@H](NC(=O)/C(=N\OCC(=O)O)c2csc(N)n2)C(=O)N1OCC(=O)O [Example 19, (3S,4S)-3-[2-(2-aminothiazol-4-yl)-(Z)-2-carboxymethoxy-iminoacetamido]-1-carboxymethoxy-4-methyl-2-azetidinone disodium salt] | 0.39 | 0.39 | > 100 | 0.39 | 0.39 | 50
